Test results from ChEMBL document CHEMBL4507291 (2021).

Key:
[1] = target: Serine/threonine-protein kinase MARK1 (Homo sapiens) (UniProt Q9P0L2); experiment: MARK1 (MARK) Kinase screen; conditions: Compound concentration 1.0 uM
[2] = target: Misshapen-like kinase 1 (Homo sapiens) (UniProt Q8N4C8); experiment: MINK1 Kinase screen; conditions: Compound concentration 1.0 uM
Rattus norvegicus = species: Rattus norvegicus; experiment: Protein Serine/Threonine Kinase, PKC, Non-Selective Eurofins-Panlabs enzyme assay; conditions: Compound concentration 10.0 uM
[3] = target: T1, Ephrin type-B receptor 3 (Homo sapiens) (UniProt P54753); experiment: EPHB3 Kinase screen; conditions: Compound concentration 1.0 uM
T1 sequence (whole entry): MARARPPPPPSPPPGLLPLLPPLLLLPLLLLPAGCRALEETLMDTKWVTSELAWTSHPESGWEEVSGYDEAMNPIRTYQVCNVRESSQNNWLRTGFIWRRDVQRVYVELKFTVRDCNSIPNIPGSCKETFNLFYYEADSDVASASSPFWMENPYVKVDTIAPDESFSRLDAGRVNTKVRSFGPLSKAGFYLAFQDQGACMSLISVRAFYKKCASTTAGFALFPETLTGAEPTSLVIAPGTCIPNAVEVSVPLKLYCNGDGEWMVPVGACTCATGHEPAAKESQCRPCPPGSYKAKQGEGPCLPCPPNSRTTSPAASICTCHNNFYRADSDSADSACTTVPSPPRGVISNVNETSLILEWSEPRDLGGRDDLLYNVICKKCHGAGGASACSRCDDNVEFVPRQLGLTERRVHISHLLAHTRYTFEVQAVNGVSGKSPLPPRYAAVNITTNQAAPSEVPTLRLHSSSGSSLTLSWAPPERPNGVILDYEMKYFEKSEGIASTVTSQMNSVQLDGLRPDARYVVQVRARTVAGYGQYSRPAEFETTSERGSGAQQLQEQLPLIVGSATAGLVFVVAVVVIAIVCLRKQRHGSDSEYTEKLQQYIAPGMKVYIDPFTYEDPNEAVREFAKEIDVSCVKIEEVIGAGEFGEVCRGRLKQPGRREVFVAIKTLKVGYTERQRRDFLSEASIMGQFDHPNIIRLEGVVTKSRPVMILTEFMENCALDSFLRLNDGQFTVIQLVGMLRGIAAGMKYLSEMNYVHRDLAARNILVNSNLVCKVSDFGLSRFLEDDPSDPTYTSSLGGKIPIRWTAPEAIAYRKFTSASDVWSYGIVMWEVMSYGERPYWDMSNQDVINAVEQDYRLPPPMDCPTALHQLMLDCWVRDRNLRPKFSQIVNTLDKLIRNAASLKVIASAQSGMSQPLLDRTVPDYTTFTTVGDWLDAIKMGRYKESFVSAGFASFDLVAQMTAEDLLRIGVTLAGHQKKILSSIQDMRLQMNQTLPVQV

[4] = target: Progesterone receptor (Homo sapiens) (UniProt P06401); experiment: Inhibition of Progesterone PR-B at 10 µM in the Eurofins-Panlabs radioligand binding assay (Eurofins_assay_268020); design: ligand concentration 1.4 nM; conditions: Compound concentration 10.0 uM
Sequence of Progesterone receptor (Homo sapiens) (P06401 whole entry): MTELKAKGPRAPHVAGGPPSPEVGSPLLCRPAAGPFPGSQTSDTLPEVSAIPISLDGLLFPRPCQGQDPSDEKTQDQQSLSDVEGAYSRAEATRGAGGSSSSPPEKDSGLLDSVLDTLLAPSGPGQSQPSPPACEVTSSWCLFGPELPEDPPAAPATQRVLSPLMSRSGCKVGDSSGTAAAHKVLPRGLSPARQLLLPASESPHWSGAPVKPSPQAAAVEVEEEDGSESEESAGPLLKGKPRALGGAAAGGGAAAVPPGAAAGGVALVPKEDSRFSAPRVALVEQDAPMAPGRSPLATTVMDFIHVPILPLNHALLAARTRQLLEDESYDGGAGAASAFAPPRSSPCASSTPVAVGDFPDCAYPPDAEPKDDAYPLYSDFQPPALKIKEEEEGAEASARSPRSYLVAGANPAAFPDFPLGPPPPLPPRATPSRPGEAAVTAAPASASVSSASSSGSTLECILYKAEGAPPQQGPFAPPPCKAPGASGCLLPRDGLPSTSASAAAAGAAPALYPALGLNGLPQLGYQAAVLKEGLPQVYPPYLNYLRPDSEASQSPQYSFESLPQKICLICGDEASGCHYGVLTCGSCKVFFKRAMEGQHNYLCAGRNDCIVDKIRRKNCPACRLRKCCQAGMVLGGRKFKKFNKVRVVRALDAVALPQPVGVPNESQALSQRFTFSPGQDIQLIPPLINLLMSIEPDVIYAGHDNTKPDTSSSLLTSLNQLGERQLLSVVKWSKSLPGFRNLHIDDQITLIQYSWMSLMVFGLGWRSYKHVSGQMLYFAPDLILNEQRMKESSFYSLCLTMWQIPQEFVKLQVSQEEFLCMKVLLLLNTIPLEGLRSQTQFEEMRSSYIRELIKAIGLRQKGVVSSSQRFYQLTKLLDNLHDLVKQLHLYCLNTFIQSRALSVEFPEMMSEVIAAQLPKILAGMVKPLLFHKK

[5] = target: Vasopressin V1b receptor (Homo sapiens) (UniProt P47901); experiment: Inhibition of Vasopressin V1B at 10 µM in the Eurofins-Panlabs radioligand binding assay (Eurofins_assay_287560); design: ligand concentration 1 nM; conditions: Compound concentration 10.0 uM
Sequence of Vasopressin V1b receptor (Homo sapiens) (P47901 whole entry): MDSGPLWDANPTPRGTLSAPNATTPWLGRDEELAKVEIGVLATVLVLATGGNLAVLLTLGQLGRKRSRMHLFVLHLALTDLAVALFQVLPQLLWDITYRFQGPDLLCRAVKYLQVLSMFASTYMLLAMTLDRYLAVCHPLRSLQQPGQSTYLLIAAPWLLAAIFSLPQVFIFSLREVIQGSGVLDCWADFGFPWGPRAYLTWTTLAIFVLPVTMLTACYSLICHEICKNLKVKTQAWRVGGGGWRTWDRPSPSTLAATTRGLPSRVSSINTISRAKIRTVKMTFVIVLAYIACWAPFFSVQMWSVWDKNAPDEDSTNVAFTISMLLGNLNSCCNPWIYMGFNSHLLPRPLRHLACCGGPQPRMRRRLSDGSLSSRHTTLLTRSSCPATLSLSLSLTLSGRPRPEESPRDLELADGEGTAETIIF

[6] = target: Dual specificity tyrosine-phosphorylation-regulated kinase 4 (Homo sapiens) (UniProt Q9NR20); experiment: DYRK4 Kinase screen; conditions: Compound concentration 1.0 uM
[7] = target: Tyrosine-protein kinase Yes (Homo sapiens) (UniProt P07947); experiment: YES1 Kinase screen; conditions: Compound concentration 1.0 uM
Sequence of Tyrosine-protein kinase Yes (Homo sapiens) (P07947 2-543 limits assumed): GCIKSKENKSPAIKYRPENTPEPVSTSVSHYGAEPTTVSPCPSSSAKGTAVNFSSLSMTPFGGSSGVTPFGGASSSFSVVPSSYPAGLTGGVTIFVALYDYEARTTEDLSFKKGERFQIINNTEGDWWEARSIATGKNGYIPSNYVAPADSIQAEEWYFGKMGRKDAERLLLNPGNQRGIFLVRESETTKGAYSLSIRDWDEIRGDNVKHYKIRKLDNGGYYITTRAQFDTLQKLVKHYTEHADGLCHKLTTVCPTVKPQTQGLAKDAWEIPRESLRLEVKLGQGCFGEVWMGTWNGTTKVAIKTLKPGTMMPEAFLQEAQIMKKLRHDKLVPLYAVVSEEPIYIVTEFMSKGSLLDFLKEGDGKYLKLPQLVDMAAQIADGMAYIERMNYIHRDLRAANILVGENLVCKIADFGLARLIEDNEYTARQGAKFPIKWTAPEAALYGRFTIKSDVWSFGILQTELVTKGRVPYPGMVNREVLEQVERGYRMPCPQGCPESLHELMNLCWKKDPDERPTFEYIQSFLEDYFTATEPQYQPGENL

[8] = target: T2, Tyrosine-protein kinase TXK (Homo sapiens) (UniProt P42681); experiment: TXK Kinase screen; conditions: Compound concentration 1.0 uM
T2 sequence (whole entry): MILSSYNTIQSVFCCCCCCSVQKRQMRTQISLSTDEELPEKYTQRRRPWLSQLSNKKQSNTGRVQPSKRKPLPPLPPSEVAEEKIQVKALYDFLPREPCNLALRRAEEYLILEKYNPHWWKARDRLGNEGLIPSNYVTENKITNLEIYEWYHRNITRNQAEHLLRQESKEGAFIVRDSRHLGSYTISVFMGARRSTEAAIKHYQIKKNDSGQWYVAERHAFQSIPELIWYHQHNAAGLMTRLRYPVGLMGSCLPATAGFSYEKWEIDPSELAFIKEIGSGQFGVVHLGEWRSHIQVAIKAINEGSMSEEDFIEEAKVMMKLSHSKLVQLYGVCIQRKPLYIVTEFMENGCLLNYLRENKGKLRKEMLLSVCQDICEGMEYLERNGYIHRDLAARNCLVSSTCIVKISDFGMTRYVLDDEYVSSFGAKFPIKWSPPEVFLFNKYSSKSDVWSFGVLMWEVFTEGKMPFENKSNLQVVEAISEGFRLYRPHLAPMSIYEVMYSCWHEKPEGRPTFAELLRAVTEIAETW

[9] = target: Mitogen-activated protein kinase 11 (Homo sapiens) (UniProt Q15759); experiment: MAPK11 (p38 beta) Kinase screen; conditions: Compound concentration 1.0 uM
Sequence of Mitogen-activated protein kinase 11 (Homo sapiens) (Q15759 whole entry): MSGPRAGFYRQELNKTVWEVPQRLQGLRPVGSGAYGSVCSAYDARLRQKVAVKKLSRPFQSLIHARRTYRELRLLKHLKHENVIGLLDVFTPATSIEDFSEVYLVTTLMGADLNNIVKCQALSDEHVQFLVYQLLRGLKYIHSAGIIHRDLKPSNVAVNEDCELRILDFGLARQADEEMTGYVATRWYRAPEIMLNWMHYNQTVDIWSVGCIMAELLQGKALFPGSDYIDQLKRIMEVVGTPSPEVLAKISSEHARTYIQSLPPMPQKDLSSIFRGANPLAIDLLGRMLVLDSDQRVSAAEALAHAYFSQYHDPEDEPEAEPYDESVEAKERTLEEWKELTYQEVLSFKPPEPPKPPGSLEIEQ

[10] = target: Vascular endothelial growth factor receptor 2 (Homo sapiens) (UniProt P35968); experiment: KDR (VEGFR2) Kinase screen; conditions: Compound concentration 1.0 uM
Sequence of Vascular endothelial growth factor receptor 2 (Homo sapiens) (P35968 whole entry): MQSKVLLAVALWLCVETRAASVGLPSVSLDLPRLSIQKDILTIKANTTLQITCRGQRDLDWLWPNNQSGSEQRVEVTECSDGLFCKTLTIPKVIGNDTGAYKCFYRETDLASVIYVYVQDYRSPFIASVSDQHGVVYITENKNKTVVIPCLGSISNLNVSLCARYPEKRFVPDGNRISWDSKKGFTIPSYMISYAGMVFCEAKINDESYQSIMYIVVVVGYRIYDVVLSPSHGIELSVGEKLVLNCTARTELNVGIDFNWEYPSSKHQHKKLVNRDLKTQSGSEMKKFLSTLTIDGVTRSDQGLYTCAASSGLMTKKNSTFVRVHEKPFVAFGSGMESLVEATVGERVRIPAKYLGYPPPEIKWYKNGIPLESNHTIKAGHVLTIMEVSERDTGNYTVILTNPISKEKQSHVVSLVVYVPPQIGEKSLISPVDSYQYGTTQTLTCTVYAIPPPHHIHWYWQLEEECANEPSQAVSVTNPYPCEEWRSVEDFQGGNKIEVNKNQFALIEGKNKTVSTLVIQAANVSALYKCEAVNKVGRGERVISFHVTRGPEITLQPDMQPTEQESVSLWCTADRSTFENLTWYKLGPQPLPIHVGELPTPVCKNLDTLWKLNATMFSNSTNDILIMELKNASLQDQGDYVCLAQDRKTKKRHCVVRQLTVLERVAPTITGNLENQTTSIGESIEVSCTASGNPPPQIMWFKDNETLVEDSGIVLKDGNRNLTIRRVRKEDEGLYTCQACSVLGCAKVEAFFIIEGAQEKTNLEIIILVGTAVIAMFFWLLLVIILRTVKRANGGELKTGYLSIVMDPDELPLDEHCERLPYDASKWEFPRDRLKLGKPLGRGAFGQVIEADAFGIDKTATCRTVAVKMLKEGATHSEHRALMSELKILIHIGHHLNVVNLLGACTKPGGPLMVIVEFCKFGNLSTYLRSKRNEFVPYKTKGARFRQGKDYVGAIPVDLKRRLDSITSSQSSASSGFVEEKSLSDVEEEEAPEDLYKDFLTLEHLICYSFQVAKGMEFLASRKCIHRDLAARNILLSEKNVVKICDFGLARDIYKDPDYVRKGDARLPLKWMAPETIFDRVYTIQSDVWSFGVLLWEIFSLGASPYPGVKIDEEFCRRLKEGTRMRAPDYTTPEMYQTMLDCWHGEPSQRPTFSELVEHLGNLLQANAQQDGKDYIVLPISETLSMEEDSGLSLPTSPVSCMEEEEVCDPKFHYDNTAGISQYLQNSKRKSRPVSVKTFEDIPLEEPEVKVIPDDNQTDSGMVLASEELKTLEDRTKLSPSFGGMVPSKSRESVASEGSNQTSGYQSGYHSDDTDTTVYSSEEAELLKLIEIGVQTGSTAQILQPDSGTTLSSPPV

[11] = target: Endothelin-1 receptor (Homo sapiens) (UniProt P25101); conditions: Compound concentration 10.0 uM
Sequence of Endothelin-1 receptor (Homo sapiens) (P25101 whole entry): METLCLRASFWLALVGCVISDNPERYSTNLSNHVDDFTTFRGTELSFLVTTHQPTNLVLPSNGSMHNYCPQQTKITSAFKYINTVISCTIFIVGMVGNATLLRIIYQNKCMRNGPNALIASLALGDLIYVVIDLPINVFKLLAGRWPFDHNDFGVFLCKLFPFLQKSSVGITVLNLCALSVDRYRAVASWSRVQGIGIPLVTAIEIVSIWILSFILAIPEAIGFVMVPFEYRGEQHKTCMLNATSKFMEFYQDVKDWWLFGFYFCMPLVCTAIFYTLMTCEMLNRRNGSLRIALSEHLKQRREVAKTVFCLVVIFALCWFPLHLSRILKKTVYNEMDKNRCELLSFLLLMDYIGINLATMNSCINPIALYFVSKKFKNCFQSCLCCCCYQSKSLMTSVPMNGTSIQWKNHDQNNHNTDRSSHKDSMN

[12] = target: GABA-A receptor; anion channel (Rattus norvegicus) (UniProt O09028+P15431+P18506+P18508+P19969+P20236+P23574+P23576+P28471+P28473+P30191+P62813+P63079+P63138+Q91ZM7+Q9ES14); conditions: Compound concentration 10.0 uM

Measured: inhibition

Sequence of Serine/threonine-protein kinase MARK1 (Homo sapiens) (Q9P0L2 whole entry, looked up): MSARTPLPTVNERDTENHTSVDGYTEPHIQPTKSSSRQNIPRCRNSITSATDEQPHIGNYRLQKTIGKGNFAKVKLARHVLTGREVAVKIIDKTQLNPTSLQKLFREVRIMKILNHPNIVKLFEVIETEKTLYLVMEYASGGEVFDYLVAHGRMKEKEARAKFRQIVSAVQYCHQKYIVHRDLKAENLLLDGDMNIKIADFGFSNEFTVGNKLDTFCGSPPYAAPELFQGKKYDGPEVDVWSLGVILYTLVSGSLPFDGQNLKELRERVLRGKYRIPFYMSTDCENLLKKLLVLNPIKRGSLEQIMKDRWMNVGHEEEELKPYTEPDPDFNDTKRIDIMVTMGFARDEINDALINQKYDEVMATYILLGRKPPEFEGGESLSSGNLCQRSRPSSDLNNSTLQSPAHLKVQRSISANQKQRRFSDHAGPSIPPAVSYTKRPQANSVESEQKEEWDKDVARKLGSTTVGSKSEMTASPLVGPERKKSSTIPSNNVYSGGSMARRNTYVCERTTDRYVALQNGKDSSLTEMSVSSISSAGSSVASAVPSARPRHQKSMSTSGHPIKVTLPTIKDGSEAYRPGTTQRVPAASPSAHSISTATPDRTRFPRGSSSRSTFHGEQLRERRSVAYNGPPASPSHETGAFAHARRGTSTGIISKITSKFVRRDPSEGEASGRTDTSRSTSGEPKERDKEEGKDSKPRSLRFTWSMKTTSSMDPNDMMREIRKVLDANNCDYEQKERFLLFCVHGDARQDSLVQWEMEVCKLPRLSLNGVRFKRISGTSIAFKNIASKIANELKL

C[C@@H]1CN(c2cc(-c3n[nH]c4ccc(OC5(C)CC5)cc34)ncn2)C[C@H](C)O1 [MLi-2]
inactive: [1] 8.35% | [2] 4.58% | Rattus norvegicus 26% | [3] 9.87% | [4] 30% | [5] 1% | [6] 1.74% | [7] 5.77% | [8] 3.11% | [9] 13% | [10] 3.64% | [11] 23% | [12] 35%
